According to patent US10792289B2 (Horizon Orphan LLC, priority 2009, dated 2020):
Read-outs that look alike come from different tables or passages of the source.

Tested on: P. aeruginosa isolates
Assay: Phase 2 study: MIC of P. aeruginosa isolates to levofloxacin
Format: cell-based
Settings: Pseudomonas aeruginosa
Description: Efficacy was evaluated by microbiologic assessment of sputum samples, time to need for anti-pseudomonal antimicrobials, the Cystic Fibrosis Questionaire-Revised (CFQ-R), and pulmonary function tests. […] Pair-wise comparisons between all the treatment arms were conducted as secondary analyses.

## C[C@H]1COc2c(N3CCN(C)CC3)c(F)cc3c(=O)c(C(=O)O)cn1c23 [Levofloxacin, levofloxacin]
672 h, MITT, combined 240 mg QD and BID, Day 28, read-out: Highest MIC, MIC90
  MIC90: 32 µg/mL
672 h, MITT, combined 240 mg QD and BID, Day 28, read-out: MIC50 (all organisms)
  MIC50: 4 µg/mL
672 h, MITT, combined 240 mg QD and BID, Day 28, read-out: MIC90 (all organisms)
  MIC90: 16 µg/mL
672 h, Table 14, EE, 120 mg QD, Day 28, read-out: MIC50 (all organisms)
  MIC50: 8 µg/mL
672 h, Table 14, EE, 120 mg QD, Day 28, read-out: MIC90 (all organisms)
  MIC90: 32 µg/mL
672 h, Table 14, EE, 240 mg BID, Day 28, read-out: MIC50 (all organisms)
  MIC50: 8 µg/mL
672 h, Table 14, EE, 240 mg BID, Day 28, read-out: MIC90 (all organisms)
  MIC90: 32 µg/mL
672 h, Table 14, EE, 240 mg QD, Day 28, read-out: MIC50 (all organisms)
  MIC50: 8 µg/mL
672 h, Table 14, EE, 240 mg QD, Day 28, read-out: MIC90 (all organisms)
  MIC90: 16 µg/mL
672 h, Table 14, EE, combined 240 mg QD and BID, Day 28, read-out: MIC50 (all organisms)
  MIC50: 8 µg/mL
672 h, Table 14, EE, combined 240 mg QD and BID, Day 28, read-out: MIC90 (all organisms)
  MIC90: 32 µg/mL
672 h, read-out: Highest MIC to levofloxacin, mean (SD), MITT, 120 mg QD, Day 28
  MIC: 12.7 µg/mL
672 h, read-out: Highest MIC to levofloxacin, mean (SD), MITT, 240 mg BID, Day 28
  MIC: 17.9 µg/mL
672 h, read-out: Highest MIC to levofloxacin, mean (SD), MITT, 240 mg QD, Day 28
  MIC: 9.17 µg/mL
672 h, read-out: Highest MIC to levofloxacin, mean (SD), MITT, combined 240 mg QD and BID, Day 28
  MIC: 13.5 µg/mL
672 h, read-out: MIC to levofloxacin (all organisms), mean (SD), EE, 120 mg QD, Day 28
  MIC: 8.9 µg/mL
672 h, read-out: MIC to levofloxacin (all organisms), mean (SD), EE, 240 mg BID, Day 28
  MIC: 10.1 µg/mL
672 h, read-out: MIC to levofloxacin (all organisms), mean (SD), EE, 240 mg QD, Day 28
  MIC: 6 µg/mL
672 h, read-out: MIC to levofloxacin (all organisms), mean (SD), EE, combined 240 mg QD and BID, Day 28
  MIC: 8 µg/mL
672 h, read-out: MIC to levofloxacin (all organisms), mean (SD), MITT, 120 mg QD, Day 28
  MIC: 8.8 µg/mL
672 h, read-out: MIC to levofloxacin (all organisms), mean (SD), MITT, 240 mg BID, Day 28
  MIC: 9.9 µg/mL
672 h, read-out: MIC to levofloxacin (all organisms), mean (SD), MITT, 240 mg QD, Day 28
  MIC: 5.9 µg/mL
672 h, read-out: MIC to levofloxacin (all organisms), mean (SD), MITT, combined 240 mg QD and BID, Day 28
  MIC: 7.9 µg/mL
672 h, read-out: MIC to levofloxacin (all organisms), mean (SD), Table 14, EE, 120 mg QD, Day 28
  MIC: 12.9 µg/mL
672 h, read-out: MIC to levofloxacin (all organisms), mean (SD), Table 14, EE, 240 mg BID, Day 28
  MIC: 18 µg/mL
672 h, read-out: MIC to levofloxacin (all organisms), mean (SD), Table 14, EE, 240 mg QD, Day 28
  MIC: 9.42 µg/mL
672 h, read-out: MIC to levofloxacin (all organisms), mean (SD), Table 14, EE, combined 240 mg QD and BID, Day 28
  MIC: 13.6 µg/mL
EE and MITT, 120 mg QD, baseline, read-out: MIC50 for P. aeruginosa isolates
  MIC50: 8 µg/mL
EE and MITT, 120 mg QD, baseline, read-out: MIC90 for P. aeruginosa isolates
  MIC90: 32 µg/mL
EE and MITT, 240 mg BID, baseline, read-out: MIC50 for P. aeruginosa isolates
  MIC50: 6 µg/mL
EE and MITT, 240 mg BID, baseline, read-out: MIC90 for P. aeruginosa isolates
  MIC90: 32 µg/mL
EE and MITT, 240 mg QD, baseline, read-out: MIC50 for P. aeruginosa isolates
  MIC50: 4 µg/mL
EE and MITT, 240 mg QD, baseline, read-out: MIC90 for P. aeruginosa isolates
  MIC90: 32 µg/mL
All patients, baseline (n=592 isolates), read-out: Median baseline MIC of all isolates
  MIC: 4 µg/mL
read-out: Baseline MIC90 of all isolates
  MIC90: 16 µg/mL
read-out: Highest MIC to levofloxacin, mean (SD), MITT, 120 mg QD, Day 1
  MIC: 14.3 µg/mL
read-out: Highest MIC to levofloxacin, mean (SD), MITT, 240 mg BID, Day 1
  MIC: 11.4 µg/mL
read-out: Highest MIC to levofloxacin, mean (SD), MITT, 240 mg QD, Day 1
  MIC: 9.06 µg/mL
read-out: Highest MIC to levofloxacin, mean (SD), MITT, combined 240 mg QD and BID, Day 1
  MIC: 10.2 µg/mL
read-out: MIC to levofloxacin (all organisms), mean (SD), EE, 120 mg QD, Day 1
  MIC: 11.5 µg/mL
read-out: MIC to levofloxacin (all organisms), mean (SD), EE, 240 mg BID, Day 1
  MIC: 6.8 µg/mL
read-out: MIC to levofloxacin (all organisms), mean (SD), EE, 240 mg QD, Day 1
  MIC: 6.3 µg/mL
read-out: MIC to levofloxacin (all organisms), mean (SD), EE, combined 240 mg QD and BID, Day 1
  MIC: 6.5 µg/mL
read-out: MIC to levofloxacin (all organisms), mean (SD), MITT, 120 mg QD, Day 1
  MIC: 11 µg/mL
read-out: MIC to levofloxacin (all organisms), mean (SD), MITT, 240 mg BID, Day 1
  MIC: 6.8 µg/mL
read-out: MIC to levofloxacin (all organisms), mean (SD), MITT, 240 mg QD, Day 1
  MIC: 6.1 µg/mL
read-out: MIC to levofloxacin (all organisms), mean (SD), MITT, combined 240 mg QD and BID, Day 1
  MIC: 6.4 µg/mL
read-out: MIC to levofloxacin (all organisms), mean (SD), Table 14, EE, 120 mg QD, Day 1
  MIC: 15 µg/mL
read-out: MIC to levofloxacin (all organisms), mean (SD), Table 14, EE, 240 mg BID, Day 1
  MIC: 11.6 µg/mL
read-out: MIC to levofloxacin (all organisms), mean (SD), Table 14, EE, 240 mg QD, Day 1
  MIC: 9.35 µg/mL
read-out: MIC to levofloxacin (all organisms), mean (SD), Table 14, EE, combined 240 mg QD and BID, Day 1
  MIC: 10.5 µg/mL
